Assays:
[1] = biological target: AmpC β-lactamase (Pseudomonas aeruginosa (strain ATCC 15692 / DSM 22644 / CIP 104116 / JCM 14847 / LMG 12228 / 1C / PRS 101 / PAO1), UniProt P24735); assay type: biochemical
Protocol: The biological activity of the above-mentioned compounds represented by formulae (H) and (s) can be measured as follows. […] Further, using constitutive AmpC producing Pseudomonas aeruginosa, a combined antimicrobial activity (MIC) was measured when using Piperacillin (PIPC) as an antibiotic and the compound of formula (H) or (s) in combination to check whether or not the antimicrobial activity of PIPC could be restored.
Using P. aeruginosa PAO1 genome as a template, a DNA for encoding an AmpC β-lactamase domain excluding a signal peptide was amplified with PCR. This PCR product was incorporated into pET-28b(+)vector (Merck), introduced into E. coli BL21 (Merck), and, under induction of 1 mM isopropyl-β-D-(−)-thiogalactopyranoside (Nacalai Tesque), cultured overnight at 20° C. to express AmpC. After the bacterial cell was collected. AmpC was purified from the cell extract obtained by ultrasonic treatment, using CM Sepharose Fast Flow (GE Healthcare) and HiTrap Heparin HP (GE Healthcare) at 4° C.

[2] = tested on: P. aeruginosa PAO1 variant, which constitutively expresses AmpC; assay: Combinatorial antibacterial activity: MIC of piperacillin (PIPC) with test compound, agar plate dilution; assay type: cell-based, Pseudomonas aeruginosa; conditions: for MIC (antimicrobial activity of Piperacillin (PIPC) in combination with the compound): Table 7, PIPC in combination with 4 μg/mL of the compound
Protocol: The biological activity of the above-mentioned compounds represented by formulae (H) and (s) can be measured as follows. Specifically, an enzyme inhibitory activity (IC50 value) against AmpC enzyme which is a class C β-lactamase was determined using nitrocephin as a substrate to check whether or not the compounds had the inhibitory activity and compare the activities of them. Further, using constitutive AmpC producing Pseudomonas aeruginosa, a combined antimicrobial activity (MIC) was measured when using Piperacillin (PIPC) as an antibiotic and the compound of formula (H) or (s) in combination to check whether or not the antimicrobial activity of PIPC could be restored.
The combinatorial effect of the test compound with a β-lactam agent against bacteria was evaluated using AmpC constitutive expression strain selected from P. aeruginosa PAO1 through agent exposure. Using piperacillin (PIPC, Sigma-Aldrich) as a β-lactam agent, measurement was conducted by agar plate dilution process in which minimal inhibitory concentration (MIC) of PIPC is based on Clinical and Laboratory Standards Institute (CLSI process). That is, an agara plate containing 4 μg/mL (final concentration) of test compound and PIPC at each concentration in Mueller-Hinton agar (Becton, Dickinson and Company) was made, and bacteria cultured overnight in cation-adjusted Muller-Hinton broth (Becton, Dickinson and Company) were adjusted in the same medium so as to have 10^4 CFU/spot and inoculated on a plate containing an agent. This plate containing an agent was cultured overnight at 35° C., and the minimum agent concentration in which no growth of bacteria is observed was determined to be MIC.

AmpC β-lactamase, sequence (P24735 27-397): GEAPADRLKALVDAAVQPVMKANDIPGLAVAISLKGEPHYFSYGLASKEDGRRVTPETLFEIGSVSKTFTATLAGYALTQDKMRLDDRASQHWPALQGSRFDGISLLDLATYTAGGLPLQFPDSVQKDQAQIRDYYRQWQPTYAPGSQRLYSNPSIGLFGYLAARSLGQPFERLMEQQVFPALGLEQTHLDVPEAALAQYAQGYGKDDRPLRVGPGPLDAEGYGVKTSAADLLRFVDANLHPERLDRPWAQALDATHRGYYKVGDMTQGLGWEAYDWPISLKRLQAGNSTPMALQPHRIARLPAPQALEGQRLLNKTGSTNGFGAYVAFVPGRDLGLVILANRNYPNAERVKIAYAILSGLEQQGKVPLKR

| Compound | β-lactamase enzyme inhibitory activity (in words) [1] | effect of the compound in combination with an antibiotic (in words) [2] | MIC (antimicrobial activity of Piperacillin (PIPC) in combination with the compound) [2] [µg/mL] |
| --- | --- | --- | --- |
| NC(=O)[C@@H]1CC[C@@H]2CN1C(=O)N2OS(=O)(=O)[O-].[Na+] [Example 23, (2S,5R)-1,6-Diazabicyclo[3.2.1]octane-2-carboxamide, 7-oxo-6-(sulfoxy)-monosodium salt] | exhibited the activities | exhibited the activities | 4 |
| NC(=O)[C@H]1CC[C@H]2CN1C(=O)N2OS(=O)(=O)[O-].[Na+] [Example 24, (2R,5S)-1,6-Diazabicyclo[3.2.1]octane-2-carboxamide, 7-oxo-6-(sulfoxy)-monosodium salt] | exhibited no activity | exhibited no activity | 64 |
| C[C@]1(Cn2ccnn2)[C@H](C(=O)[O-])N2C(=O)C[C@H]2S1(=O)=O.[Na+] [TAZ, Tazobactam, reference compound] | – | – | 64 |
